From patent publication US11622984B2, “Composition comprising aster sphathulifolius maxim extract for preventing, improving, or treating muscular diseases or for improving muscular functions” (NEWTREE CO., LTD., priority 2018, dated 2023)

Tests used:
Type in all cases: in vivo, C57BL/6 mice
[1] = test system: muscle atrophy mouse model; experiment: Muscle tissue weight in leg-immobilization muscle atrophy mouse model
Procedure: (§1) An animal experiment was conducted to confirm whether an Aster spathulifolius extract improved muscle atrophy in a muscle atrophy mouse model. Five-week-old male C57BL/6 mice were adapted to an animal laboratory environment for one week, and then divided into five groups according to an experimental condition, and immobilization of the legs to induce muscle atrophy and oral administration of samples were performed for two weeks. Specifically, experimental groups were divided into an untreated control group (normal group, Cont), a muscle atrophy induced group (induction group, IM), a positive control group (HMB administered group, HMB 370) induced with muscle atrophy and administered with beta-hydroxy beta-methylbutyrate (HMB) (370 mg/kg), a group (Aster spathulifolius low-dose administered group, AS 100) induced with muscle atrophy and administered with a low dose (100 mg/kg) of Aster spathulifolius extract, and a group (Aster spathulifolius high-dose administered group, AS 200) induced with muscle atrophy and administered with a high dose (200 mg/kg) of Aster spathulifolius extract. Immobilization of the legs was performed by applying a fixing tool manufactured by using a 1.5 ml microfuge tube, clips, and a Velcro tape as shown in References (Disease models & mechanisms, 8(9), 1059-1069, 2015) to one hind leg of the mouse. All samples were dissolved in 0.5% carboxymethylcellulose (CMC) and orally administered once a day for 14 days from a day of application of leg fixation. After 2 weeks of leg fixation and oral administration of the sample, the gastrocnemius and the quadriceps of one hind leg were extracted, and the weights thereof were measured, normalized in proportion to the body weight, and then compared and shown in FIG. 1. As a result, compared to the normal group (Cont), the induction group (IM) induced muscle atrophy, resulting in a weight loss of about 40% in the gastrocnemius and about 33% in the quadriceps in proportion to the body weight. In the HMB-administered group (HMB 370), as the positive control group, the gastrocnemius decreased by about 24% and the quadriceps decreased by about 17%, showing about 16% and 16% of a muscle atrophy protective ability, respectively. On the other hand, in the low-dose group of Aster spathulifolius (AS 100), the gastrocnemius decreased by about 27% and the quadriceps decreased by about 22%. In the high-dose group of Aster spathulifolius (AS 200), the gastrocnemius decreased by about 25% and the quadriceps decreased by about 18%.

p-mTOR = experiment: Western blot protein expression in gastrocnemius of muscle atrophy mouse model; details: 370 mg/kg oral, 14 days
Procedure: An animal experiment was conducted to confirm whether an Aster spathulifolius extract improved muscle atrophy in a muscle atrophy mouse model. Five-week-old male C57BL/6 mice were adapted to an animal laboratory environment for one week, and then divided into five groups according to an experimental condition, and immobilization of the legs to induce muscle atrophy and oral administration of samples were performed for two weeks. Specifically, experimental groups were divided into an untreated control group (normal group, Cont), a muscle atrophy induced group (induction group, IM), a positive control group (HMB administered group, HMB 370) induced with muscle atrophy and administered with beta-hydroxy beta-methylbutyrate (HMB) (370 mg/kg), a group (Aster spathulifolius low-dose administered group, AS 100) induced with muscle atrophy and administered with a low dose (100 mg/kg) of Aster spathulifolius extract, and a group (Aster spathulifolius high-dose administered group, AS 200) induced with muscle atrophy and administered with a high dose (200 mg/kg) of Aster spathulifolius extract. […] After 2 weeks of leg fixation and oral administration of the sample, the gastrocnemius and the quadriceps of one hind leg were extracted, and the weights thereof were measured, normalized in proportion to the body weight, and then compared and shown in FIG. 1. […]

murf-1 = experiment: qRT-PCR mRNA expression in gastrocnemius of muscle atrophy mouse model; details: 370 mg/kg oral, 14 days, induction group about 3 times
Procedure: (§2) An animal experiment was conducted to confirm whether an Aster spathulifolius extract improved muscle atrophy in a muscle atrophy mouse model. Five-week-old male C57BL/6 mice were adapted to an animal laboratory environment for one week, and then divided into five groups according to an experimental condition, and immobilization of the legs to induce muscle atrophy and oral administration of samples were performed for two weeks. […] After 2 weeks of leg fixation and oral administration of the sample, the gastrocnemius and the quadriceps of one hind leg were extracted, and the weights thereof were measured, normalized in proportion to the body weight, and then compared and shown in FIG. 1. […]
(§3) To confirm whether the Aster spathulifolius extract improved the mRNA expression levels of muscle atrophy-related factors, muscle ring finger-1 (MuRF-1) and Atrogin-1, in a muscle atrophy mouse model, quantitative real-time PCR (qRT-PCR) was performed. […]

atrogin-1 = experiment: as above; details: 370 mg/kg oral, 14 days, induction group about three times
Procedure: as §2, §3

[2] = test system: muscle atrophy mouse model; experiment: Cross-sectional area of muscle fibers (H&E staining, image J) in muscle atrophy mouse model; details: 370 mg/kg oral, 14 days
Procedure: as §1
Histological analysis was conducted to confirm whether an Aster spathulifolius extract improved the reduction in cross-sectional area of muscle fibers in a muscle atrophy mouse model. The gastrocnemius and quadriceps tissues extracted in Example 2 above were fixed with 4% paraformaldehyde and then subjected to hematoxylin and eosin staining (H&E staining), and thereafter, the cross-sectional area of the dyed muscle fibers was quantified through image J software, and the results were shown in FIGS. 2 and 3.

For CC(C)(O)CC(=O)O [HMB, beta-hydroxy beta-methylbutyrate], the “quadriceps weight decrease in proportion to body weight vs normal group” value ([1]; 370 mg/kg oral once a day, 14 days leg fixation, induction group about 33%) was “about 17%”, the “gastrocnemius weight decrease in proportion to body weight vs normal group” value ([1]; 370 mg/kg oral once a day, 14 days leg fixation, induction group about 40%) was “about 24%” and the “muscle atrophy protective ability (muscle weight), gastrocnemius” value ([1]; 370 mg/kg oral, 14 days) was “about 16%”. For the same molecule, the “muscle atrophy protective ability (muscle weight), quadriceps” value ([1]; 370 mg/kg oral, 14 days) was “about 16%”, the p-mTOR protein expression (p-mTOR) was “large increase” and the “murf-1 gene expression relative to normal group” value (murf-1) was “about 1.7 times”. The “atrogin-1 gene expression relative to normal group” value (atrogin-1) was “about 1.3 times”, the “protective ability against the cross-sectional area of muscle fibers, gastrocnemius” value [2] was 17% and the “protective ability against the cross-sectional area of muscle fibers, quadriceps” value [2] was 19%. For the same molecule, the “reduction in muscle fiber size (H&E staining)” value ([2]; both muscle tissues) was “the reduction in muscle fiber size was alleviated”, the “decrease of cross-sectional area of muscle fiber vs normal group, quadriceps” value ([2]; induction group about 47%) was “about 28%” and the “decrease of cross-sectional area of muscle fiber vs normal group, gastrocnemius” value ([2]; induction group about 50%) was “about 33%”.
